IC50 data for 100 molecules are collected here from PubChem BioAssay AID488890 (Southern Research Specialized Biocontainment Screening …, 2010).

Structures are written as SMILES. Inconclusive results are not listed. The source made the active and inactive calls. The rule behind the calls is not given here.

By IC50 is commonly meant the concentration at which inhibition is half-maximal.

The assay has as its system Mycobacterium tuberculosis non-replicating, growth inhibition. Description: growth inhibition of non-replicating M. tuberculosis (AID 488890).
As to `CCOC(=O)c1ccc(NC2OC(=O)c3ccccc32)cc1` (stereo not given), the IC50 was 3.99 µM. As for `O=C(N/N=C/C=C/c1ccccc1)c1ccncc1`, the IC50 was 0.92 µM. As for `Cc1ccc(NCCC(=O)c2cccs2)cc1Cl`, the IC50 is 3.56 µM. In the case of `CC(=O)OCCNc1cc(Sc2nc3ccccc3[nH]2)c2nonc2c1[N+](=O)[O-]`, the 50% inhibitory concentration (IC50) was 2.41 µM. As for `COc1ccc(C(C)NC(=O)CCc2ccccc2)cc1` (stereo not given), the figure is 34.9 µM (inactive); as for `O=C(Nc1nccs1)c1cc2cc(Cl)ccc2oc1=O`, 3.23 µM. With `COc1ccc(C(=O)C=CNNC(=O)c2ccc(Cl)cc2)cc1` the figure was 0.48 µM. `O=C(Nc1ncc(Cc2ccccc2)s1)C1=NCCN1`: the IC50 was 9.49 µM. Turning to `COc1cccc2c1C(CO)N1C(C#N)C3CC(C(=O)O)C(C1C2)N3C` (stereo not given), the IC50 was 2.09 µM. For the molecule `COc1ccc(Cl)cc1N=Cc1c(O)c2ccccc2oc1=O`, the IC50 is 44.3 µM (inactive).

Consider `CCN1/C(=C(\O)c2ccccc2)C(=O)c2ccccc2S1(=O)=O`, for which the IC50 is 15.8 µM (inactive).

Take `Cc1ccccc1OCCC(=O)OCC(=O)NNC(=O)c1cccs1`: the IC50 is 21.4 µM (inactive). On to `CC(=O)Nc1ccc(OC(=O)c2ccc(Br)c([N+](=O)[O-])c2)cc1`, for which the IC50 was 8.96 µM.

For `COc1cc(CNCCO)cc(Cl)c1OCc1ccc(Cl)cc1Cl`, the IC50 was 6.67 µM. Take `CCCC(=O)N1CCC(Cc2ccccc2)CC1`: the half-maximal inhibitory concentration (IC50) is 3.47 µM.

With `CC(=O)c1cc2c(ccc3ccccc32)oc1=O`, the IC50 is 15.4 µM (inactive). `NC(N)=N/N=C/c1cccc([N+](=O)[O-])c1O`: the IC50 was 2.01 µM.

Consider `O=C(Nc1nc(-c2cccs2)cs1)c1ccc([N+](=O)[O-])o1`, for which the IC50 is 2.08 µM.

`O=S(=O)(c1ccc(OCC2CO2)cc1)c1ccc(OCC2CO2)cc1` (stereo not given): the IC50 is 19.7 µM (inactive).

As to `COc1ccc(-c2noc(-c3cc4ccccc4oc3=O)n2)cc1`, the IC50 was 5.06 µM. As for `CN1CCc2c(sc(NC(=O)c3ccc([N+](=O)[O-])o3)c2C(N)=O)C1`, the figure is 8.37 µM.

For `CN(C)CCN1C(=O)c2oc3ccccc3c(=O)c2C1c1cccc(Br)c1` (stereo not given), the IC50 is 23.1 µM (inactive). For the molecule `CCOC(=O)c1ccc(-c2ccc(C(=O)Nc3cccnc3)o2)cc1`, the IC50 was 0.84 µM. Regarding `O=C(NCCC1=CCCCC1)c1ccc(F)cc1`, the IC50 is 1.36 µM. Take `CCOc1ccc(Nc2ccc([N+](=O)[O-])c3nonc23)cc1`: the IC50 is 1.72 µM. With `Cn1c(SCc2c(F)cccc2Cl)nc2c(c1=O)SCC2` the figure was 28.2 µM (inactive); with `Cc1ccc(Sc2ccc(/C=C3/C(=O)NN(c4ccccc4)C3=O)o2)cc1`, 4.23 µM; with `CCc1nnc(N/N=C/c2c(F)cccc2Cl)n1N`, 15.3 µM (inactive). In the case of `CCOc1ccc(Nc2cc(C)nc(-n3nc(C)cc3C)n2)cc1`, the IC50 is 3.32 µM. Turning to `O=C(Nc1ncc2c(n1)-c1ccccc1OC2)c1ccc(F)cc1`, the IC50 is 4.39 µM.

Regarding `COC(=O)CCCCCN1C(=O)/C(=C\c2ccncc2)SC1=S`, the IC50 is 3.94 µM. With `CCn1nnc(NC(=O)c2sc3ccccc3c2Cl)n1` the figure was 28.5 µM (inactive); with `Cc1cc(C)nc(Sc2ncnc(N)c2[N+](=O)[O-])n1`, 10.7 µM (inactive); with `Cc1cc(C)nc(-n2nc(C)cc2Nc2ccccc2)n1`, 5.25 µM.

For the molecule `CN(C)CCC(=O)N1c2ccccc2Sc2ccc(C(F)(F)F)cc21`, the IC50 is 17.9 µM (inactive). As to `CO/N=C/CC(=O)c1ccc(OC)cc1`, the IC50 was 30.5 µM (inactive). In the case of `CCOC(=O)C(C)Oc1ccc(OCc2ccccc2)cc1` (stereo not given), the IC50 was 2.24 µM.

As to `Cc1ccc(C(=O)N/N=C\c2ccc(-c3ccc(Cl)cc3)o2)cn1`, the IC50 is 7.02 µM. Consider `Clc1ccc(OCCCCN2CCc3ccccc3C2)cc1`, for which the IC50 was 9.36 µM. Turning to `O=C(Nc1ccc(S(=O)(=O)N2CCOCC2)cc1)c1ccc([N+](=O)[O-])s1`, the IC50 was 1.59 µM. In the case of `Cc1[nH]nc2c1C(c1ccc(-c3ccc(Cl)cc3)o1)C(C#N)=C(N)O2` (stereo not given), the IC50 is 2.24 µM.

With `CCCCCn1c(=O)c(C(=O)Nc2cnccn2)c(O)c2ccccc21`, the IC50 is 2.55 µM. `CC1=NN(C(=O)c2csc(C(C)C)c2)C(O)(C(F)(F)F)C1` (stereo not given): the IC50 was 0.36 µM.

On to `COc1ccc(-c2[nH]ncc2CN2CCCCCCC2)c(OC)c1`, for which the IC50 is 11 µM (inactive). As for `CCCCNC(=O)COC(=O)c1cc(Br)ccc1Cl`, the figure is 3.86 µM. On to `COc1ccc(C2=NC(=O)/C(=C\c3cc(OC)c(OC)c(OC)c3)O2)cc1`, for which the IC50 is 3.37 µM. With `CCOc1ccc(OCCSc2ccc(S(=O)(=O)N3CCN(C)CC3)cn2)cc1` the figure was 15.5 µM (inactive). With `COc1ccccc1C1=Nn2c(nnc2C2CCCCC2)SC1` the figure was 13.9 µM (inactive); with `COc1cccc(/C=N/N2C(=O)CSC2=S)c1O`, 23.9 µM (inactive); with `Cc1[nH]n(-c2ccc(Cl)cc2)c(=O)c1N=Nc1cccnc1`, 1.37 µM. With `Cc1ccc(OC(=O)c2ccc(Br)o2)cc1` the figure was 13.6 µM (inactive); with `COc1cccc(N2C(=O)NC(=O)/C(=C/c3ccc([N+](=O)[O-])s3)C2=O)c1`, 17.1 µM (inactive); with `S=C1SCN(Cc2cccnc2)CN1Cc1ccccc1`, 14.9 µM (inactive). On to `O=C(Nc1ncccc1O)c1ccc(Oc2ccccc2)cc1`, for which the IC50 was 20.5 µM (inactive). As to `CC/C(=C\c1oc2cc3ccccc3cc2[n+]1CC)Nc1ccccc1`, the IC50 is 3.14 µM. With `CN(C)CCCN(C(=O)CCc1ccccc1)c1nc2ccc(Br)cc2s1` the figure was 14.2 µM (inactive); with `N/C(=N/OC(=O)c1ccc(Cl)cc1)c1ncc([N+](=O)[O-])s1`, 7.53 µM. Turning to `Cc1ccccc1NC(=O)c1nc[nH]c1C(=O)NCc1ccccc1`, the IC50 is 23.7 µM (inactive).

With `COC(=O)c1ccc(C(=O)NC2CCCc3c2cnn3-c2cc(F)cc(F)c2)nc1` (stereo not given), the IC50 was 9.55 µM. Turning to `Nc1c(Cl)cc(Cl)cc1C(=O)OCC(=O)N1CCCC1`, the IC50 is 2.46 µM. For the molecule `COc1cc(CNC2CCCC2)cc(Cl)c1OCc1ccc(F)cc1`, the IC50 was 17.5 µM (inactive). In the case of `CC1=NN(c2ccccc2)C(=O)C1C(=O)c1ccccc1` (stereo not given), the IC50 is 15.9 µM (inactive). For `CSCCC(=O)N1CCCC(CNC(=O)c2ccc(-c3ccccc3)cc2)C1` (stereo not given), the IC50 is 17.9 µM (inactive). Turning to `COc1ccc(OCC(=O)NNC(=O)c2ccccn2)cc1`, the IC50 is 11.3 µM (inactive). Consider `Cn1c(=O)c(Oc2ccc(F)cc2)c(O)c2ccccc21`, for which the IC50 is 8.27 µM.

In the case of `C/C(=N\Nc1ccc(Cl)cc1)c1c(O)cc(C)oc1=O`, the IC50 was 3.61 µM. In the case of `C(=C\c1ccccc1)/CSc1nc2ncccc2[nH]1`, the IC50 was 4.36 µM. For `CCOC(=O)Cn1c2ccc(F)cc2c2nc(C)sc21`, the IC50 is 13.8 µM (inactive). With `Cc1ccc2nc(NC(=O)c3ccccn3)sc2c1` the figure was 0.63 µM; with `COC(=O)c1ccc(OCC(=O)c2cccc(OC)c2)cc1`, 11 µM (inactive); with `CCCOC(=O)c1ccc(NC(=O)c2ccc(Br)o2)cc1`, 2.96 µM. On to `Cn1c(=O)c2c(=O)cc(NNC(=O)CC#N)[nH]c2n(C)c1=O`, for which the IC50 is 26.9 µM (inactive).

For `O=C(Nc1ccc(-c2nc3ccccc3c(=O)o2)cc1)c1ccco1`, the IC50 is 0.35 µM. Consider `O=C(N/N=C/c1cc([N+](=O)[O-])ccc1O)C1CCCCC1`, for which the IC50 is 1.97 µM. Take `c1ccc2sc(SCc3ccc(-c4nnco4)cc3)nc2c1`: the IC50 was 13.2 µM (inactive). As to `O=C(N/N=C(\c1ccccc1)c1ccccn1)c1cccc([N+](=O)[O-])c1`, the IC50 was 1.93 µM. In the case of `CCn1cc(/C=N\NC(=O)c2ccc(F)cc2)cn1`, the IC50 is 24.3 µM (inactive). Consider `Cc1ccc2nc(C)c3c(c2c1)SCC3`, for which the IC50 was 11.6 µM (inactive).

As to `CCOc1cc(CNC(C)(C)CO)cc(Br)c1OCc1ccc(Cl)cc1Cl`, the IC50 is 10.8 µM (inactive).

As for `Cc1ccc(NC(C)C(=O)N/N=C/c2ccc([N+](=O)[O-])s2)cc1` (stereo not given), the IC50 is 5.74 µM.

On to `COC(=O)CCCC(=O)N1CCCC(C(=O)c2ccc(-c3ccccc3)cc2)C1` (stereo not given), for which the IC50 is 35.8 µM (inactive). For the molecule `COc1cccc(C(=O)N2N=C(c3ccccn3)CC2(O)C(F)(F)F)c1` (stereo not given), the IC50 was 12.3 µM (inactive).

As to `c1ccc(-c2cccc(-c3ccccn3)n2)nc1`, the IC50 was 19.7 µM (inactive). With `Oc1c(Br)cc(Br)cc1/C=N/c1nccs1` the figure was 21.2 µM (inactive); with `O=C(Oc1c(-c2ccco2)oc2ccccc2c1=O)c1cccnc1`, 11.5 µM (inactive); with `Cc1cc(N/N=C/c2ccc(O)cc2O)nc(-n2nc(C)cc2C)n1`, 0.77 µM. On to `CCOC(=O)C1CCCN(Cc2ccc(OCc3ccccc3)cc2)C1` (stereo not given), for which the IC50 is 21.8 µM (inactive). Take `O=Cc1ccnc(-c2ccc(OC(=O)c3ccco3)cc2)n1`: the IC50 was 18.2 µM (inactive). As for `O=C1/C(=C/c2ccccn2)COc2ccccc21`, the IC50 is 15.8 µM (inactive). With `c1ccc(-c2nnc(SCc3nnc(-c4cccs4)o3)o2)cc1` the figure was 5.95 µM; with `CN(C)c1ccc(NC(=O)COC(=O)c2cc(Cl)ccc2[N+](=O)[O-])cc1`, 8.95 µM; with `O=C(N/N=C/C=C/c1ccccc1)c1cccs1`, 45.2 µM (inactive). As for `C/C(=N/NC(=O)c1ccco1)c1ccc(Br)s1`, the figure is 23 µM (inactive); as for `Cc1ccc2[nH]c(C)c(CCNC(=O)c3cc4cc([N+](=O)[O-])ccc4oc3=O)c2c1`, 9.15 µM; as for `CC(/C=C/c1ccco1)=N/NC(=O)c1ccc(C)nc1`, 13.4 µM (inactive). On to `Cc1ccc(CC(=O)N2CCN(c3ccc([N+](=O)[O-])cc3)CC2)cc1`, for which the IC50 was 16 µM (inactive). `CCCCNS(=O)(=O)c1ccc(OCC(=O)OC)cc1`: the IC50 was 15.6 µM (inactive). For `CCCCNC(=O)Cc1ccc(C)cc1`, the IC50 is 5.46 µM. On to `CCOC(=O)Cn1cc(C#N)c2cccc(CC)c21`, for which the IC50 is 9.18 µM. For the molecule `O=C(Nc1ncc([N+](=O)[O-])s1)c1cccs1`, the IC50 was 11.2 µM (inactive).
